Source: PubChem BioAssay AID328 (DTP/NCI, 2004)
Where “and” joins values, the source holds several entries; their conditions need not be identical. Equal entries are not always repeated. Toxic doses and inconclusive results are not listed.

System: BDF1 mice, P388 leukemia ip, median survival T/C
Experiment: NCI In Vivo Anticancer Drug Screen. Data for tumor model P388 Leukemia (intraperitoneal) in B6D2F1 (BDF1) mice
Settings: endpoint: median survival time, higher = longer survival
Method in brief: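 Reported as T/C, where T is the survival measurement in dosed animals and C the same measurement in vehicle controls.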

[1] = dose: 50.0 mg/kg/injection, schedule: Q01DX009 (ip), vehicle: saline with Tween-80
[2] = dose: 100.0 mg/kg/injection, schedule: Q01DX009 (ip), vehicle: saline with Tween-80
[3] = dose: 200.0 mg/kg/injection, schedule: Q01DX009 (ip), vehicle: saline with Tween-80
[4] = dose: 200.0 mg/kg/injection, schedule: Q04DX003 (ip), vehicle: saline with Tween-80
[5] = dose: 25.0 mg/kg/injection, schedule: Q04DX003 (ip), vehicle: saline with Tween-80
[6] = dose: 50.0 mg/kg/injection, schedule: Q04DX003 (ip), vehicle: saline with Tween-80
[7] = dose: 25.0 mg/kg/injection, schedule: Q01DX009 (ip), vehicle: Klucel (hydroxypropylcellulose) (HPC)
[8] = dose: 50.0 mg/kg/injection, schedule: Q01DX009 (ip), vehicle: Klucel (hydroxypropylcellulose) (HPC)

With C#C/C=C/CC1O/C(=C(\Br)CC)C/C=C\CC1Cl (stereo not drawn) the T/C (dose: 12.5 mg/kg/injection, schedule: Q01DX009 (ip), vehicle: other) was 99 % of control, the T/C (dose: 25.0 mg/kg/injection, schedule: Q01DX009 (ip), vehicle: other) was 114 % of control and the T/C (dose: 50.0 mg/kg/injection, schedule: Q01DX009 (ip), vehicle: other) was 99 % of control.
For C=C(C)C(=O)OC1CC2=CC(CC3(C)OC3C3OC(=O)C(=C)C13)OC2=O (stereo not drawn), the T/C (dose: 4.5 mg/kg/injection, schedule: Q01DX009 (ip), vehicle: Klucel (hydroxypropylcellulose) (HPC)) was 101 % of control, the T/C (dose: 18.0 mg/kg/injection, schedule: Q01DX009 (ip), vehicle: Klucel (hydroxypropylcellulose) (HPC)) was 106 % of control and the T/C (dose: 36.0 mg/kg/injection, schedule: Q01DX009 (ip), vehicle: Klucel (hydroxypropylcellulose) (HPC)) was 117 % of control.
In the case of CC(C)OC(=S)SSc1nc2ccccc2s1, the T/C (dose: 9.37 mg/kg/injection, schedule: Q01DX009 (ip), vehicle: saline) is reported as 115 % of control, the T/C (dose: 18.75 mg/kg/injection, schedule: Q01DX009 (ip), vehicle: saline) is reported as 110 % of control and the T/C (dose: 75.0 mg/kg/injection, schedule: Q01DX009 (ip), vehicle: saline with Tween-80) is reported as 112 % of control.
In the case of C=CCOc1ccccc1N/N=C(\Cl)C(=O)OCC, the T/C [1] is reported as 119 % of control.
Nc1nc(=O)n(CC(=O)c2cccs2)cc1F was tested, and the T/C [1] was 100 % of control, the T/C [2] was 90 % of control and the T/C (dose: 100.0 mg/kg/injection, schedule: Q04DX003 (ip), vehicle: saline with Tween-80) was 95 % of control. The T/C [3] was 86 % of control and the T/C [4] was 100 % of control.
For C[N+](C)(CC(=O)Nc1ccc(Cl)c(C(F)(F)F)c1)Cc1ccc(Cl)cc1, the T/C (dose: 25.0 mg/kg/injection, schedule: Q04DX003 (ip), vehicle: saline sonified) was 110 % of control, the T/C (dose: 50.0 mg/kg/injection, schedule: Q04DX003 (ip), vehicle: saline sonified) was 110 % of control and the T/C (dose: 100.0 mg/kg/injection, schedule: Q04DX003 (ip), vehicle: saline sonified) was 90 % of control.
With NN=C(NN)NN the T/C (dose: 50.0 mg/kg/injection, schedule: Q01DX009 (ip), vehicle: saline) was 105 % of control, the T/C (dose: 100.0 mg/kg/injection, schedule: Q01DX009 (ip), vehicle: saline) was 105 % of control and the T/C (dose: 200.0 mg/kg/injection, schedule: Q01DX009 (ip), vehicle: saline) was 96 % of control.
In the case of CCCCCCCCCCC(N)P(=O)(O)O (stereo not drawn), the T/C (dose: 12.5 mg/kg/injection, schedule: Q04DX003 (ip), vehicle: saline with Tween-80) is reported as 92 % of control, the T/C [5] is reported as 92 % of control and the T/C [6] is reported as 92 % of control.
Fc1ccc(C2CN3C(=N2)C=Cc2ccccc23)cc1 (stereo not drawn) was tested, and the T/C [1] was 101 % of control, the T/C [2] was 99 % of control and the T/C [3] was 117 % of control.
With NC(=O)NOCC(N)C(=O)O (stereo not drawn) the T/C (dose: 100.0 mg/kg/injection, schedule: Q04DX003 (ip), vehicle: saline) was 104 % of control, the T/C (dose: 200.0 mg/kg/injection, schedule: Q04DX003 (ip), vehicle: saline) was 100 % of control and the T/C (dose: 400.0 mg/kg/injection, schedule: Q04DX003 (ip), vehicle: saline) was 104 % of control.
In the case of CC1=CC(=O)C(CO)=CC1=O, the T/C (dose: 0.38 mg/kg/injection, schedule: Q01DX009 (ip), vehicle: saline with Tween-80) is reported as 105 % of control, the T/C (dose: 0.75 mg/kg/injection, schedule: Q01DX009 (ip), vehicle: saline with Tween-80) is reported as 108 % of control and the T/C (dose: 1.5 mg/kg/injection, schedule: Q01DX009 (ip), vehicle: saline with Tween-80) is reported as 110 % of control. For the same compound, the T/C (dose: 3.0 mg/kg/injection, schedule: Q01DX009 (ip), vehicle: saline with Tween-80) was 115 % of control and the T/C (dose: 6.0 mg/kg/injection, schedule: Q01DX009 (ip), vehicle: saline with Tween-80) was 107 % of control.
For Cc1cc(=O)[nH]c2cc(Br)ccc12, the T/C (dose: 100.0 mg/kg/injection, schedule: Q01DX001 (ip), vehicle: saline with Tween-80) was 104 % of control, the T/C (dose: 200.0 mg/kg/injection, schedule: Q01DX001 (ip), vehicle: saline with Tween-80) was 90 % of control and the T/C (dose: 400.0 mg/kg/injection, schedule: Q01DX001 (ip), vehicle: saline with Tween-80) was 90 % of control.
With CCOC(=O)CCCN(c1[nH]c(C)c(C)c1C#N)S(=O)(=O)c1ccc(C)cc1 the T/C (dose: 25.0 mg/kg/injection, schedule: Q01DX009 (ip), vehicle: saline with Tween-80) was 109 % of control, the T/C [1] was 100 % of control and the T/C [2] was 113 % of control. For the same compound, the T/C [3] was 104 % of control, the T/C [4] was 87 % of control and the T/C (dose: 400.0 mg/kg/injection, schedule: Q04DX003 (ip), vehicle: saline with Tween-80) was 95 % of control.
For C[N+](C)(C)Cc1ccccc1, the T/C [5] was 95 % of control and the T/C [6] was 112 % of control.
In the case of COc1cc2c(cc1OC)[C@]13C[C@@H](OC)CC=C1CCN3CCC2, the T/C (dose: 5.0 mg/kg/injection, schedule: Q01DX009 (ip), vehicle: alcohol) is reported as 100 % of control, the T/C (dose: 10.0 mg/kg/injection, schedule: Q01DX009 (ip), vehicle: alcohol) is reported as 95 % of control and the T/C (dose: 20.0 mg/kg/injection, schedule: Q01DX009 (ip), vehicle: alcohol) is reported as 90 % of control. The T/C (dose: 40.0 mg/kg/injection, schedule: Q01DX009 (ip), vehicle: alcohol) was 90 % of control.
O=C(Nc1ccccc1F)Nc1ccccc1Cl was tested, and the T/C [7] was 110 % of control and 112 % of control, the T/C [8] was 86 % of control and 105 % of control and the T/C (dose: 100.0 mg/kg/injection, schedule: Q01DX009 (ip), vehicle: Klucel (hydroxypropylcellulose) (HPC)) was 101 % of control and 110 % of control. The T/C (dose: 200.0 mg/kg/injection, schedule: Q01DX009 (ip), vehicle: Klucel (hydroxypropylcellulose) (HPC)) was 97 % of control and 120 % of control and the T/C (dose: 400.0 mg/kg/injection, schedule: Q01DX009 (ip), vehicle: Klucel (hydroxypropylcellulose) (HPC)) was 106 % of control and 107 % of control and 117 % of control.
For O=C1CN(CN2CCCCC2)C(=O)CN1CN1CCCCC1, the T/C (dose: 12.5 mg/kg/injection, schedule: Q01DX009 (ip), vehicle: Klucel (hydroxypropylcellulose) (HPC)) was 115 % of control, the T/C [7] was 117 % of control and the T/C [8] was 92 % of control and 100 % of control. The T/C (dose: 100.0 mg/kg/injection, schedule: Q04DX003 (ip), vehicle: Klucel (hydroxypropylcellulose) (HPC)) was 120 % of control and the T/C (dose: 200.0 mg/kg/injection, schedule: Q04DX003 (ip), vehicle: Klucel (hydroxypropylcellulose) (HPC)) was 108 % of control.
In the case of NNc1c(C(N)=O)c2c(N)ncnc2n1C1OC(CO)C(O)C1O (stereo not drawn), the T/C (dose: 50.0 mg/kg/injection, schedule: Q04DX003 (ip), vehicle: water) is reported as 171 % of control, the T/C (dose: 100.0 mg/kg/injection, schedule: Q04DX003 (ip), vehicle: water) is reported as 166 % of control and the T/C (dose: 200.0 mg/kg/injection, schedule: Q04DX003 (ip), vehicle: water) is reported as 199 % of control.
